System: 843126-344-R-J1-PDC complex spheroid viability
Assay: Anticancer human tumor 843126-344-R-J1-PDC patient-derived melanoma cell line growth inhibition [POLQ]
Settings: for IC50: curve of first compound; for viability, T/C: stronger effect = lower value
Description: Multicellular complex tumor spheroid response to Polymerase (POL) inhibitors (novobiocin, ART-558, RP6685) in combination with a variety of drugs and investigational agents in selected tumor cell lines
The POL inhibitors (novobiocin, ART-558, and RP6685) were evaluated both individually and in combination with standard of care and investigational anticancer small molecules within a complex spheroid model of solid tumors. . Complex spheroids include a stromal component modeled by human endothelial cells (HUVEC) and fibroblasts modeled by human mesenchymal stem cells (MSCs). The concentration ranges selected for each drug and investigational agent were based upon clinically achievable concentrations if the clinical Cmax of the agent was known.
Compounds. The drugs and investigational agents: novobiocin (NSC847541), ART-558 (NSC835418), RP-6685 (NSC848927), peposertib (NSC802822), ceralasertib (NSC780249), elimusertib (NSC800525), camonsertib (NSC841442), AZD-1390 (NSC803789), olaparib (NSC753686), talazoparib (NSC767125), rucaparib (NSC756644), sotorasib (NSC818433), MRTX-1133 (NSC836407), SN-38 (NSC673596), topotecan (NSC609699), epotoside (NSC141540), doxorubicin (NSC123127), gemcitabine (NSC613327), 5-fluorouracil (NSC19893), paclitaxel (NSC125973), vemurafenib (NSC761431), MSA-2 (NSC828583), SN-011 (NSC837082), adavosertib (NSC754352), prexasertib (NSC758257), carboplatin (NSC241240) and oxaliplatin (NSC266046), were obtained from the National Cancer Institute (NCI) Developmental Therapeutics Program Chemical Repository (21). The FDA-approved anticancer drug set is available from the Developmental Therapeutics Program at https://dtp.cancer.gov/organization/dscb/obtaining/. […] The stock solutions were prepared in dimethyl sulfoxide (DMSO, Sigma-Aldrich, St. Louis, MO, cat. D2650), except for the platinum compounds which were prepared in saline (Quality Biological, Gaithersburg, MD, cat. 114-055-101), at 800-fold the tested concentration and stored at -70 degrees C prior to their use. All drugs and investigational agents were tested over a range starting from a high concentration at or near the clinical Cmax and decreasing in half-log increments. If the clinical Cmax for an agent had not been determined, the highest concentration tested was 10 microM, except for SN-38, which was tested at a high concentration of 1 microM.
Cell Culture. All cells were maintained in an incubator at 37 degrees C and 5% CO2 with 95% humidity. The PDC lines were cultured according to standard operating procedures established by the NCI PDMR (https://pdmr.cancer.gov). Table 3 of the manuscript, lists the cell lines along with the number of the three cell types plated to form the mct-spheroids and media for tumor cell growth. After thawing, all PDC lines, except 997537-175-T-J1-PDC and 415267-285-R-J2-PDC, were cultured in Matrigel-coated flasks prepared with a working solution of 1X Ham's F-12 nutrient mix, without supplementation (Thermo Fisher Scientific, cat. 11765054), 100 U/mL penicillin-streptomycin (Thermo Fisher Scientific, cat. 15140122), and 2.5% Matrigel (Corning Inc., Corning, NY, cat. 354248) for the first three passages. The two PDC lines 997537-175-T-J1-PDC and 415267-285-R-J2-PDC were cultured on uncoated flasks. The 857933-349-R-J2-PDC line was cultured in 6C/Colon 1B media containing advanced DMEM/F-12 (Thermo Fisher Scientific, cat. 12634028), 10 mM HEPES (Thermo Fisher Scientific, cat. 15630080), 1X GlutaMAX supplement (Thermo Fisher Scientific, cat. 35050061), 0.1 mg/mL primocin (InvivoGen, San Diego, CA, cat. ant-pm-2), 10% defined fetal bovine serum, heat inactivated (HyClone Laboratories Inc., Logan, UT, cat. SH30070.03HI), 50% L-WRN conditioned media (ATCC, cat. CRL-3276), 1.25 mM N-Acetyl-L-cysteine (Sigma-Aldrich, cat. A9165), 10 mM nicotinamide (Sigma-Aldrich, cat. N0636), 1X B-27 supplement (Thermo Fisher Scientific, cat. 17504044), 1X N-2 supplement (Thermo Fisher Scientific, cat. […]

[1] = second compound 0.0316 µM, first compound 0.0316 µM
[2] = second compound 0.0316 µM, first compound 0.1 µM
[3] = second compound 0.0316 µM, first compound 0.316 µM
[4] = second compound 0.0316 µM, first compound 1 µM
[5] = second compound 0.0316 µM, first compound 3.16 µM
[6] = second compound 0.0316 µM, first compound 10 µM
[7] = second compound 0.1 µM, first compound 0.0316 µM
[8] = second compound 0.1 µM, first compound 0.1 µM
[9] = second compound 0.1 µM, first compound 0.316 µM
[10] = second compound 0.1 µM, first compound 1 µM
[11] = second compound 0.1 µM, first compound 3.16 µM
[12] = second compound 0.1 µM, first compound 10 µM
[13] = second compound 0.316 µM, first compound 0.0316 µM
[14] = second compound 0.316 µM, first compound 0.1 µM
[15] = second compound 0.316 µM, first compound 0.316 µM
[16] = second compound 0.316 µM, first compound 1 µM
[17] = second compound 0.316 µM, first compound 3.16 µM
[18] = second compound 0.316 µM, first compound 10 µM
[19] = second compound 1 µM, first compound 0.0316 µM
[20] = second compound 1 µM, first compound 0.1 µM
[21] = second compound 1 µM, first compound 0.316 µM
[22] = second compound 1 µM, first compound 1 µM
[23] = second compound 1 µM, first compound 3.16 µM
[24] = second compound 1 µM, first compound 10 µM
[25] = second compound 3.16 µM, first compound 0.0316 µM
[26] = second compound 3.16 µM, first compound 0.1 µM
[27] = second compound 3.16 µM, first compound 0.316 µM
[28] = second compound 3.16 µM, first compound 1 µM
[29] = second compound 3.16 µM, first compound 3.16 µM
[30] = second compound 3.16 µM, first compound 10 µM
[31] = second compound 10 µM, first compound 0.0316 µM
[32] = second compound 10 µM, first compound 0.1 µM
[33] = second compound 10 µM, first compound 0.316 µM
[34] = second compound 10 µM, first compound 1 µM
[35] = second compound 10 µM, first compound 3.16 µM
[36] = second compound 10 µM, first compound 10 µM
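Wherever viability, T/C is given: spheroids exposed to drugs for seven days before readout.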

Question: Which IC50 (second compound 0.0316 µM) does the source give for CC1COCCN1c1cc(-c2ccnn2C)c2ccnc(-c3ccn[nH]3)c2n1 (centres undefined) + Cc1cccc(N(C)C(=O)C2C(O)CCN2c2nc(C)cc(C(F)(F)F)c2C#N)c1 here?
Answer: 1970 nM

Question: What about the IC50 (second compound 0.1 µM) of the same compound?
Answer: 1300 nM

Question: And the IC50 (second compound 0.316 µM)?
Answer: 2070 nM

Question: What about the IC50 (second compound 1 µM) of the same compound?
Answer: 1580 nM

Question: And the IC50 (second compound 3.16 µM)?
Answer: 1660 nM

Question: What about the IC50 (second compound 10 µM) of the same compound?
Answer: 1870 nM

Question: And the viability, T/C [1]?
Answer: 85.6%

Question: What about the viability, T/C [2] of the same compound?
Answer: 77.7%

Question: And the viability, T/C [3]?
Answer: 63.8%

Question: What about the viability, T/C [4] of the same compound?
Answer: 55.1%

Question: And the viability, T/C [5]?
Answer: 50.3%

Question: What about the viability, T/C [6] of the same compound?
Answer: 32.7%

Question: And the viability, T/C [7]?
Answer: 80.9%

Question: What about the viability, T/C [8] of the same compound?
Answer: 67.5%

Question: And the viability, T/C [9]?
Answer: 64.2%

Question: And the viability, T/C [10]?
Answer: 52.6%

Question: What about the viability, T/C [11] of the same compound?
Answer: 42.8%

Question: And the viability, T/C [12]?
Answer: 28.4%

Question: And the viability, T/C [13]?
Answer: 87.2%

Question: What about the viability, T/C [14] of the same compound?
Answer: 92.2%

Question: What about the viability, T/C [15] of the same compound?
Answer: 64.7%

Question: And the viability, T/C [16]?
Answer: 63.9%

Question: And the viability, T/C [17]?
Answer: 43%

Question: What about the viability, T/C [18] of the same compound?
Answer: 36.7%

Question: What about the viability, T/C [19] of the same compound?
Answer: 88.1%

Question: And the viability, T/C [20]?
Answer: 85%

Question: What about the viability, T/C [21] of the same compound?
Answer: 68.8%

Question: What about the viability, T/C [22] of the same compound?
Answer: 55.6%

Question: What about the viability, T/C [23] of the same compound?
Answer: 42.6%

Question: What about the viability, T/C [24] of the same compound?
Answer: 33.3%

Question: What about the viability, T/C [25] of the same compound?
Answer: 89%

Question: What about the viability, T/C [26] of the same compound?
Answer: 82.2%

Question: And the viability, T/C [27]?
Answer: 68.7%

Question: And the viability, T/C [28]?
Answer: 54.2%

Question: What about the viability, T/C [29] of the same compound?
Answer: 44.8%

Question: And the viability, T/C [30]?
Answer: 35%

Question: And the viability, T/C [31]?
Answer: 82.5%

Question: What about the viability, T/C [32] of the same compound?
Answer: 83.5%

Question: And the viability, T/C [33]?
Answer: 66%

Question: And the viability, T/C [34]?
Answer: 57.6%

Question: And the viability, T/C [35]?
Answer: 45.1%

Question: And the viability, T/C [36]?
Answer: 33.1%

Question: For O=C(c1cc(Cc2n[nH]c(=O)c3ccccc23)ccc1F)N1CCN(C(=O)C2CC2)CC1 + Cc1cccc(N(C)C(=O)C2C(O)CCN2c2nc(C)cc(C(F)(F)F)c2C#N)c1, which IC50 (second compound 0.0316 µM) is on record?
Answer: > 10000 nM

Question: What about the IC50 (second compound 0.1 µM) of the same compound?
Answer: > 10000 nM

Question: And the IC50 (second compound 0.316 µM)?
Answer: > 10000 nM

Question: What about the IC50 (second compound 1 µM) of the same compound?
Answer: > 10000 nM

Question: And the IC50 (second compound 3.16 µM)?
Answer: > 10000 nM

Question: What about the IC50 (second compound 10 µM) of the same compound?
Answer: > 10000 nM

Question: And the viability, T/C [1]?
Answer: 116%

Question: What about the viability, T/C [2] of the same compound?
Answer: 99.2%

Question: What about the viability, T/C [3] of the same compound?
Answer: 84.3%

Question: And the viability, T/C [4]?
Answer: 82.3%

Question: And the viability, T/C [5]?
Answer: 91.9%

Question: And the viability, T/C [6]?
Answer: 74.2%

Question: What about the viability, T/C [7] of the same compound?
Answer: 110%

Question: What about the viability, T/C [8] of the same compound?
Answer: 98.7%

Question: What about the viability, T/C [9] of the same compound?
Answer: 92.7%

Question: What about the viability, T/C [10] of the same compound?
Answer: 90.9%

Question: What about the viability, T/C [11] of the same compound?
Answer: 93.7%

Question: What about the viability, T/C [12] of the same compound?
Answer: 67.1%

Question: What about the viability, T/C [13] of the same compound?
Answer: 95.7%

Question: What about the viability, T/C [14] of the same compound?
Answer: 78.8%

Question: What about the viability, T/C [15] of the same compound?
Answer: 89.4%

Question: What about the viability, T/C [16] of the same compound?
Answer: 91.5%

Question: And the viability, T/C [17]?
Answer: 82%

Question: What about the viability, T/C [18] of the same compound?
Answer: 75.7%

Question: What about the viability, T/C [19] of the same compound?
Answer: 85.4%

Question: What about the viability, T/C [20] of the same compound?
Answer: 97.8%

Question: What about the viability, T/C [21] of the same compound?
Answer: 96.9%

Question: And the viability, T/C [22]?
Answer: 97.8%

Question: And the viability, T/C [23]?
Answer: 84.1%

Question: And the viability, T/C [24]?
Answer: 77.6%

Question: And the viability, T/C [25]?
Answer: 91.5%

Question: And the viability, T/C [26]?
Answer: 83.3%

Question: What about the viability, T/C [27] of the same compound?
Answer: 88.8%

Question: And the viability, T/C [28]?
Answer: 89.6%

Question: And the viability, T/C [29]?
Answer: 84.2%

Question: And the viability, T/C [30]?
Answer: 71.2%

Question: What about the viability, T/C [31] of the same compound?
Answer: 83.8%

Question: And the viability, T/C [32]?
Answer: 102%

Question: And the viability, T/C [33]?
Answer: 85.8%

Question: What about the viability, T/C [34] of the same compound?
Answer: 92.1%

Question: What about the viability, T/C [35] of the same compound?
Answer: 103%

Question: And the viability, T/C [36]?
Answer: 78.8%

Source: PubChem BioAssay AID1963837 (Molecular Pharmacology Branch, DTP, NCI, 2024)
